From PubChem BioAssay AID1259411 (Chemical Carcinogenesis Research Information System (CCRIS), 2018)
Activity calls are given as the source filed them. No rule for the calls is given here.

Tested on: rodent carcinogenicity bioassays, tumor incidence
Test: CCRIS carcinogenicity studies
Conditions: Dose: 0, Dose: 0
In short: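 NCI-built, expert-reviewed records of carcinogenicity and related test outcomes (mutagenicity, tumor promotion/inhibition) compiled from published and report sources, historical span 1985-2011, not updated.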

Measured: carcinogen call

O=C1OC(c2ccc(O)cc2)(c2ccc(O)cc2)c2ccccc21
active: Species: MOUSE, Strain/Sex: B6C3F1/FEMALE, Route: ORAL, 3000, 6000, 12000 PPM IN DIET FOR 2 YR (STUDY DURATION: 2 YR), 3000, 6000, 12000 PPM IN DIET FOR 2 YR (STUDY DURATION: 2 YR), Tumor Site: Type of Lesion: OVARY: BENIGN SEX-CORD STROMAL TUMOR, LIVER: HISTIOCYTIC SARCOMA, LYMPHATIC SYSTEM: MALIGNANT LYMPHOMA, MALIGNANT LYMPHO, Tumor Site: Type of Lesion: OVARY: BENIGN SEX-CORD STROMAL TUMOR, LIVER: HISTIOCYTIC SARCOMA, LYMPHATIC SYSTEM: MALIGNANT LYMPHOMA, MALIGNANT LYMPHO active; positive | Species: MOUSE, Strain/Sex: B6C3F1/MALE, Route: ORAL, 3000, 6000, 12000 PPM IN DIET FOR 2 YR (STUDY DURATION: 2 YR), 3000, 6000, 12000 PPM IN DIET FOR 2 YR (STUDY DURATION: 2 YR), Tumor Site: Type of Lesion: LIVER: HISTIOCYTIC SARCOMA, LYMPHATIC SYSTEM: MALIGNANT LYMPHOMA (THYMIC ORIGIN) active; positive | Species: RAT, Strain/Sex: F344/FEMALE, Route: ORAL, 12000, 25000, 50000 PPM IN DIET FOR 2 YR (STUDY DURATION: 2 YR), 12000, 25000, 50000 PPM IN DIET FOR 2 YR (STUDY DURATION: 2 YR), Tumor Site: Type of Lesion: ADRENAL MEDULLA: BENIGN PHEOCHROMOCYTOMA, BENIGN OR MALIGNANT PHEOCHROMOCYTOMA active; positive | Species: RAT, Strain/Sex: F344/MALE, Route: ORAL, 12000, 25000, 50000 PPM IN DIET FOR 2 YR (STUDY DURATION: 2 YR), 12000, 25000, 50000 PPM IN DIET FOR 2 YR (STUDY DURATION: 2 YR), Tumor Site: Type of Lesion: ADRENAL MEDULLA: BENIGN PHEOCHROMOCYTOMA, KIDNEY(RENAL TUBULE): ADENOMA, ADENOMA OR CARCINOMA active; positive

ClCCl
inactive: Species: HAMSTER, Strain/Sex: SYRIAN/FEMALE, Route: INHALATION, 500, 1500, 3500 PPM IN AIR 6H/D 5D/WK FOR 104 WK (STUDY DURATION: 2 YR), 500, 1500, 3500 PPM IN AIR 6H/D 5D/WK FOR 104 WK (STUDY DURATION: 2 YR) inactive; negative | Species: HAMSTER, Strain/Sex: SYRIAN/MALE, Route: INHALATION, 500, 1500, 3500 PPM IN AIR 6H/D 5D/WK FOR 104 WK (STUDY DURATION: 2 YR), 500, 1500, 3500 PPM IN AIR 6H/D 5D/WK FOR 104 WK (STUDY DURATION: 2 YR) inactive; negative | Species: MOUSE, Strain/Sex: B6C3F1/FEMALE, Route: INHALATION, 2000 PPM 6 HR/D 5 D/WK FOR 26 WK FOLLOWING A 78 WK EXPOSURE TO CHAMBER AIR (STUDY DURATION: 104 WK) inactive; negative | Species: MOUSE, Strain/Sex: B6C3F1/FEMALE, Route: INHALATION, 2000 PPM 6 HR/D 5 D/WK FOR 52 WK FOLLOWING A 52 WK EXPOSURE TO CHAMBER AIR (STUDY DURATION: 104 WK) inactive; negative | Species: MOUSE, Strain/Sex: SWISS/FEMALE, Route: GAVAGE, 100, 500 MG/KG IN OLIVE OIL 1/D 5 D/WK FOR 64 WK (STUDY DURATION: LIFETIME), 100, 500 MG/KG IN OLIVE OIL 1/D 5 D/WK FOR 64 WK (STUDY DURATION: LIFETIME) inactive; negative | Species: RAT, Strain/Sex: SPRAGUE-DAWLEY/FEMALE, Route: GAVAGE, 100, 500 MG/KG IN OLIVE OIL 1/D 5 D/WK FOR 64 WK (STUDY DURATION: LIFETIME), 100, 500 MG/KG IN OLIVE OIL 1/D 5 D/WK FOR 64 WK (STUDY DURATION: LIFETIME) inactive; negative | Species: RAT, Strain/Sex: SPRAGUE-DAWLEY/FEMALE, Route: INHALATION, 100 PPM 4 HR/D 5 D/WK FOR 7 WK THEN 7 HR/D 5 D/WK FOR 97 WK BEGINNING WHEN RATS WERE 12 DAY OLD EMBRYOS (STUDY DURATI inactive; negative | Species: RAT, Strain/Sex: SPRAGUE-DAWLEY/FEMALE, Route: INHALATION, 500, 1500, 3500 PPM IN AIR 6H/D 5D/WK FOR 104 WK (STUDY DURATION: 2 YR), 500, 1500, 3500 PPM IN AIR 6H/D 5D/WK FOR 104 WK (STUDY DURATION: 2 YR) inactive; negative | Species: RAT, Strain/Sex: SPRAGUE-DAWLEY/MALE, Route: GAVAGE, 100, 500 MG/KG IN OLIVE OIL 1/D 5 D/WK FOR 64 WK (STUDY DURATION: LIFETIME), 100, 500 MG/KG IN OLIVE OIL 1/D 5 D/WK FOR 64 WK (STUDY DURATION: LIFETIME) inactive; negative | Species: RAT, Strain/Sex: SPRAGUE-DAWLEY/MALE, Route: INHALATION, 100 PPM 4 HR/D 5 D/WK FOR 7 WK THEN 7 HR/D 5 D/WK FOR 97 WK BEGINNING WHEN RATS WERE 12 DAY OLD EMBRYOS (STUDY DURATI inactive; negative
active: Species: MOUSE, Strain/Sex: B6C3F1/FEMALE, Route: INHALATION, 2000, 4000 PPM 6 HR/D, 5 D/WK FOR 102 WK, 2000, 4000 PPM 6 HR/D, 5 D/WK FOR 102 WK, Tumor Site: Type of Lesion: LUNG: ALVEOLAR/BRONCHIOLAR ADENOMA, ALVEOLAR/BRONCHIOLAR CARCINOMA, LIVER: HEPATOCELLULAR ADENOMA, HEPATOCELLULAR CARCIN active; positive | Species: MOUSE, Strain/Sex: B6C3F1/FEMALE, Route: INHALATION, 2000 PPM 6 HR/D 5 D/WK FOR 26 WK FOLLOWED BY CHAMBER AIR EXPOSURE FOR 78 WK (STUDY DURATION: 104 WK), Tumor Site: Type of Lesion: LUNG: ADENOMA OR CARCINOMA active; positive | Species: MOUSE, Strain/Sex: B6C3F1/FEMALE, Route: INHALATION, 2000 PPM 6 HR/D 5 D/WK FOR 52 WK FOLLOWED BY CHAMBER AIR EXPOSURE FOR 52 WK (STUDY DURATION: 104 WK), Tumor Site: Type of Lesion: LUNG: ADENOMA OR CARCINOMA, LIVER: ADENOMA OR CARCINOMA active; positive | Species: MOUSE, Strain/Sex: B6C3F1/FEMALE, Route: INHALATION, 2000 PPM 6 HR/D 5 D/WK FOR 78 WK FOLLOWED BY CHAMBER AIR EXPOSURE FOR 26 WK (STUDY DURATION: 104 WK), Tumor Site: Type of Lesion: LUNG: ADENOMA OR CARCINOMA, LIVER: ADENOMA OR CARCINOMA active; positive | Species: MOUSE, Strain/Sex: B6C3F1/FEMALE, Route: INHALATION, 2000 PPM 6 HR/D 5 D/WK FOR 78 WK FOLLOWING A 26 WK EXPOSURE TO CHAMBER AIR (STUDY DURATION: 104 WK), Tumor Site: Type of Lesion: LUNG: ADENOMA OR CARCINOMA, LIVER: ADENOMA OR CARCINOMA active; positive | Species: MOUSE, Strain/Sex: B6C3F1/FEMALE, Route: INHALATION, 2000 PPM 6 HR/D 5 D/WK FOR 104 WK (STUDY DURATION: 104 WK), Tumor Site: Type of Lesion: LIVER: ADENOMA, CARCINOMA, LUNG: ADENOMA, CARCINOMA active; positive | Species: MOUSE, Strain/Sex: B6C3F1/FEMALE, Route: INHALATION, 2000 PPM 6 HR/D 5 D/WK FOR 104 WK (STUDY DURATION: 104 WK), Tumor Site: Type of Lesion: LUNG: ADENOMA OR CARCINOMA, LIVER: ADENOMA OR CARCINOMA active; positive | Species: MOUSE, Strain/Sex: B6C3F1/MALE, Route: INHALATION, 2000, 4000 PPM 6 HR/D, 5 D/WK FOR 102 WK, 2000, 4000 PPM 6 HR/D, 5 D/WK FOR 102 WK, Tumor Site: Type of Lesion: LUNG: ALVEOLAR/BRONCHIOLAR ADENOMA, ALVEOLAR/BRONCHIOLAR CARCINOMA, LIVER: HEPATOCELLULAR ADENOMA, HEPATOCELLULAR CARCIN active; positive | Species: RAT, Strain/Sex: F344/FEMALE, Route: INHALATION, 1000, 2000, 4000 PPM 6 HR/D, 5 D/WK FOR 102 WK, 1000, 2000, 4000 PPM 6 HR/D, 5 D/WK FOR 102 WK, Tumor Site: Type of Lesion: MAMMARY GLAND: FIBROADENOMA, ADENOMA OR FIBROADENOMA, HEMATOPOIETIC SYSTEM (LEUKEMIA): MONONUCLEAR CELL LEUKEMIA active; positive | Species: RAT, Strain/Sex: F344/MALE, Route: INHALATION, 1000, 2000, 4000 PPM 6 HR/D, 5 D/WK FOR 102 WK, 1000, 2000, 4000 PPM 6 HR/D, 5 D/WK FOR 102 WK, Tumor Site: Type of Lesion: MAMMARY GLAND: FIBROADENOMA, ADENOMA OR FIBROADENOMA, TUNICA VAGINALIS: MESOTHELIOMA, MULTIPLE SITES: MESOTHELIOMA, Tumor Site: Type of Lesion: MAMMARY GLAND: FIBROADENOMA, ADENOMA OR FIBROADENOMA, TUNICA VAGINALIS: MESOTHELIOMA, MULTIPLE SITES: MESOTHELIOMA active; positive | Species: RAT, Strain/Sex: SPRAGUE-DAWLEY/MALE, Route: INHALATION, 500, 1500, 3500 PPM IN AIR 6H/D 5D/WK FOR 104 WK (STUDY DURATION: 2 YR), 500, 1500, 3500 PPM IN AIR 6H/D 5D/WK FOR 104 WK (STUDY DURATION: 2 YR), Tumor Site: Type of Lesion: SALIVARY GLAND: SARCOMA active; positive
